{"source": "paper PMC4022547", "about": "(Molecular Brain, 2014)", "key": {"[1]": {"target": "hα6^S156Rhβ4hβ3^V9’S-nAChR (Homo sapiens, UniProt P30926+Q15825, S156R)", "sequence (Q15825 26-494 S156R)": "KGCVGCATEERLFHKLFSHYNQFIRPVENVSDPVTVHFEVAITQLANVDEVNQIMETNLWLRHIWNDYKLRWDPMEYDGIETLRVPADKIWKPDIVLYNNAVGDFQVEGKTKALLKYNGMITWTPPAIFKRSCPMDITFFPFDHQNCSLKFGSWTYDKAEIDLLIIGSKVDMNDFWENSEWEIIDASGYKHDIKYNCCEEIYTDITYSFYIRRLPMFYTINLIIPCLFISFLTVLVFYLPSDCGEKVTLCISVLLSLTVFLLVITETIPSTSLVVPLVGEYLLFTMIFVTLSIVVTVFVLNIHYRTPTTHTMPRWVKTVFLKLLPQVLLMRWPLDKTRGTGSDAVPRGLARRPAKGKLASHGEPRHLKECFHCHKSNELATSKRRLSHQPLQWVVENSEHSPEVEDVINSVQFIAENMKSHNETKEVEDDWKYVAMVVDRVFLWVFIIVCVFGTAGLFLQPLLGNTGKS", "sequence (P30926 22-498)": "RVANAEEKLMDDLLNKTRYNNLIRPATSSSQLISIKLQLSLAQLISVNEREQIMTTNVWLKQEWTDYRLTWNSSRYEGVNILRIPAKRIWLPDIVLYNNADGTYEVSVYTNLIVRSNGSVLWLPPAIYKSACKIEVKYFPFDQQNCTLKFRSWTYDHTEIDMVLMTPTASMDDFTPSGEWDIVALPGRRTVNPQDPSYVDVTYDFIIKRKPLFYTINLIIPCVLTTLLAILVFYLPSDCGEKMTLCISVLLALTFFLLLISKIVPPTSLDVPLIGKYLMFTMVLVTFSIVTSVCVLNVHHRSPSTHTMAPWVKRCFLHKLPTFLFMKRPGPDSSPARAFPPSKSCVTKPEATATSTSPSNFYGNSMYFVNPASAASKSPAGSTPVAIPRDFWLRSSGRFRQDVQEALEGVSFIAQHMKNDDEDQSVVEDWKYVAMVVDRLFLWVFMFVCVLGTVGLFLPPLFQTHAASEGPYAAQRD", "sequence (Q05901 25-458 V273S partner limits assumed)": "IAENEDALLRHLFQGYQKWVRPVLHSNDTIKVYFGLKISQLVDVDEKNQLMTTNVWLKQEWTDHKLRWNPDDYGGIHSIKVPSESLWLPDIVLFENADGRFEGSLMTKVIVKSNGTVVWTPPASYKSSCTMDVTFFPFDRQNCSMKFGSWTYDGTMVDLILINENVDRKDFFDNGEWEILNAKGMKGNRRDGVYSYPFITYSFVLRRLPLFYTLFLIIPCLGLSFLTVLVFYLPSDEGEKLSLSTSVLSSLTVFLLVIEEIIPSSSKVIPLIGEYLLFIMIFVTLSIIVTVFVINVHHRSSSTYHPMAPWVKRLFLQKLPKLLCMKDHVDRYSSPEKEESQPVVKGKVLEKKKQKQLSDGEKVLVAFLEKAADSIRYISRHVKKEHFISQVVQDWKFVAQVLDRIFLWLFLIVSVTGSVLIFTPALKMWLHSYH", "conditions": "nicotine (100 μM), ACh (100 μM) or atropine (1000 μM)", "method": "(§1) We planned to introduce identical amounts of cRNA, presumably producing equal amounts of each subunit protein, into oocytes largely due to lack of information about the levels of mRNA for each subunits that compose α6*-nAChRs in neurons or other cells. Concentrations of cRNAs for each nAChR α and β subunits (WT, mutant or variant) were adjusted to 500 ng μL^−1. We provisionally assumed that hα6 or its variants in association with hβ2 or hβ4 subunits would form complexes having 2:3 and/or 3:2 ratios of the indicated subunits and that oocytes also injected with WT or mutant form of β3 subunits (i.e., β3^V9’S) would express nAChR with 2:2:1 ratios of α:β:(β3 or β3^V9’S) subunits. For expression of binary nAChRs (i.e., two subunit containing nAChRs; α + β but not β3) cRNA mixtures were prepared by mixing 1 μL of cRNA for each subunit and an additional μL of RNAse free water (i.e., total volume 3 μL). Similarly for expression of ternary nAChRs [i.e., three subunit containing nAChRs; (α + β) + (β3 or β3^V9’S)] cRNA mixtures were prepared by mixing 1 μL of cRNA for each subunit. Several preparations of each mixture were prepared and stored at −80°C until further use. Injection of 138 nL of cRNA, out of 3 μL cRNA mixtures, into each oocyte would deliver ~23 ng of cRNA for each subunit whether binary or ternary nAChRs are expressed.\n(§2) Two to 5 days after injection, oocytes were placed in a small-volume chamber and continuously perfused with OR2. The chamber was grounded through an agarose bridge. The oocytes were voltage-clamped at −70 mV (unless otherwise noted) to measure agonist or antagonist induced currents using Axoclamp 900A and pClamp 10.2 software (Molecular Devices, Sunnyvale, CA). The current signal was low-pass filtered at 10 Hz with the built-in low-pass Bessel filter in the Axoclamp 900A and digitized at 20 Hz with Axon Digidata1440A and pClamp10. […] Drugs (agonists and antagonists) were prepared daily in OR2. Drug was applied using a Valvelink 8.2 perfusion system (Automate scientific, Berkeley, CA). […] Then for the purpose of comparison electrophysiological recordings were performed in a given day in a given batch of oocytes following the same order of injections. […] All hβ4*-nAChR recordings were done in similar conditions to facilitate comparisons between hα6hβ4- and hα6hβ4hβ3-nAChRs. All electrophysiological measurements were conducted or checked in at least two batches of oocytes."}, "hα6hβ4hβ3^V9’S-nAChR": {"target": "hα6hβ4hβ3^V9’S-nAChR (Homo sapiens, UniProt P30926+Q05901+Q15825, V273S)", "sequence (Q15825 26-494)": "as the sequence (Q15825 26-494 S156R) above, with R131S counted along it", "sequence (P30926 22-498)": "as the sequence (P30926 22-498) above", "sequence (Q05901 22-458 V273S)": "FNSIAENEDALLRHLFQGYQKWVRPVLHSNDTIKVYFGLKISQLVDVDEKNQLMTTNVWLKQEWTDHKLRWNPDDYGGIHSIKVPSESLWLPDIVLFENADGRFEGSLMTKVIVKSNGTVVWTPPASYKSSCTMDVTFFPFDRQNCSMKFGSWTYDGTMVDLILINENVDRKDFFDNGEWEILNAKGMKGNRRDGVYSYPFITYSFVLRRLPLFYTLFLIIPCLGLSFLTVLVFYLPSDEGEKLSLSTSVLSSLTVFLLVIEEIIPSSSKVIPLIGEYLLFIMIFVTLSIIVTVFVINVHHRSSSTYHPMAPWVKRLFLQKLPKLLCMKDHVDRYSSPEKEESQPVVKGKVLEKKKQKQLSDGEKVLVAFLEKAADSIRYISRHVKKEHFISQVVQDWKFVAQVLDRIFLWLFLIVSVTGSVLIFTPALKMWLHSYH", "conditions": "nicotine (100 μM), ACh (100 μM) or atropine (1000 μM); spontaneously opening channels", "method": "as §1, §2"}, "[2]": {"target": "hα6^R87C + hβ4 + hβ3^V9’S nAChR (Homo sapiens, UniProt P30926+Q15825, R87C)", "sequence (Q15825 26-494 R87C)": "as the sequence (Q15825 26-494 S156R) above, with R62C, R131S counted along it", "sequence (P30926 22-498)": "as the sequence (P30926 22-498) above", "sequence (Q05901 25-458 V273S partner limits assumed)": "as the sequence (Q05901 25-458 V273S partner limits assumed) above", "conditions": "nicotine (100 μM), ACh (100 μM) or atropine (1000 μM)", "method": "as §1, §2"}, "[3]": {"target": "hα6^D57Nhβ4hβ3^V9’S-nAChR (Homo sapiens, UniProt P30926+Q15825, D57N)", "sequence (Q15825 26-494 D57N)": "as the sequence (Q15825 26-494 S156R) above, with D32N, R131S counted along it", "sequence (P30926 22-498)": "as the sequence (P30926 22-498) above", "sequence (Q05901 25-458 V273S partner limits assumed)": "as the sequence (Q05901 25-458 V273S partner limits assumed) above", "conditions": "nicotine (100 μM), ACh (100 μM) or atropine (1000 μM)", "method": "as §1, §2"}, "[4]": {"target": "hα6^N171Khβ4β3^V9’S-nAChR (Homo sapiens, UniProt P30926+Q15825, N171K)", "sequence (Q15825 26-494 N171K)": "as the sequence (Q15825 26-494 S156R) above, with R131S, N146K counted along it", "sequence (P30926 22-498)": "as the sequence (P30926 22-498) above", "sequence (Q05901 25-458 V273S partner limits assumed)": "as the sequence (Q05901 25-458 V273S partner limits assumed) above", "conditions": "nicotine (100 μM), ACh (100 μM) or atropine (1000 μM)", "method": "as §1, §2"}, "hα6 + hβ4 + hβ3 nAChR [5]": {"target": "T1, hα6 + hβ4 + hβ3 nAChR (Homo sapiens, UniProt P30926+Q15825)", "T1 sequence (Q15825 26-494)": "as the sequence (Q15825 26-494 S156R) above, with R131S counted along it", "T1 sequence (P30926 22-498)": "as the sequence (P30926 22-498) above", "T1 sequence (Q05901 25-458 partner limits assumed)": "as the sequence (Q05901 25-458 V273S partner limits assumed) above, with S249V counted along it", "design": "method as in PMID 11044728", "conditions": "ref [29]; cited from earlier work"}, "hα6 + hβ4 nAChR": {"target": "hα6 + hβ4 nAChR (Homo sapiens, UniProt P30926+Q15825)", "sequence (Q15825 26-494)": "as the sequence (Q15825 26-494 S156R) above, with R131S counted along it", "sequence (P30926 22-498)": "as the sequence (P30926 22-498) above", "test": "Oocyte two-electrode voltage clamp", "type": "cell-based", "method": "as §1, §2\n(§3) Raw data was collected and processed in part using pClamp 10.2 (Molecular Devices, Sunnyvale, CA), Origin 7.5 (OriginLab Corporation, Northampton, MA) and a spreadsheet (Excel; Microsoft, Bellevue, WA). Peak current amplitudes (Imax) are reported as mean ± SEM (for results from at least three oocytes, i.e., n = 3)."}, "hα6(D199Y) + hβ4 nAChR": {"target": "hα6(D199Y) + hβ4 nAChR (Homo sapiens, UniProt P30926+Q15825, D199Y)", "sequence (Q15825 26-494 D199Y)": "as the sequence (Q15825 26-494 S156R) above, with R131S, D174Y counted along it", "sequence (P30926 22-498)": "as the sequence (P30926 22-498) above", "test": "Oocyte two-electrode voltage clamp", "type": "cell-based", "method": "as §1, §2, §3"}, "[6]": {"target": "hα6(D199Y) + hβ4 + hβ3 nAChR (Homo sapiens, UniProt P30926+Q15825, D199Y)", "sequence (Q15825 26-494 D199Y)": "as the sequence (Q15825 26-494 S156R) above, with R131S, D174Y counted along it", "sequence (P30926 22-498)": "as the sequence (P30926 22-498) above", "sequence (Q05901 25-458 partner limits assumed)": "as the sequence (Q05901 25-458 V273S partner limits assumed) above, with S249V counted along it", "test": "Oocyte two-electrode voltage clamp", "type": "cell-based", "method": "as §1, §2, §3"}, "hα6(R96H) + hβ4 nAChR": {"target": "T2, hα6(R96H) + hβ4 nAChR (Homo sapiens, UniProt P30926+Q15825, R96H)", "T2 construct": "Full length capped mRNA (i.e., cRNA) was transcribed from linearized plasmids; expressed in transfected cells; host or cells: Xenopus laevis oocytes injected with cRNA", "T2 sequence (Q15825 26-494 R96H)": "as the sequence (Q15825 26-494 S156R) above, with R71H, R131S counted along it", "T2 sequence (P30926 22-498, stated change not applied)": "as the sequence (P30926 22-498) above", "test": "Oocyte two-electrode voltage clamp", "type": "cell-based", "method": "as §1, §2, §3"}, "hα6(S233C) + hβ4 nAChR": {"target": "hα6(S233C) + hβ4 nAChR (Homo sapiens, UniProt P30926+Q15825, S233C)", "sequence (Q15825 26-494 S233C)": "as the sequence (Q15825 26-494 S156R) above, with R131S, S208C counted along it", "sequence (P30926 22-498)": "as the sequence (P30926 22-498) above", "test": "Oocyte two-electrode voltage clamp", "type": "cell-based", "method": "as §1, §2, §3"}, "[7]": {"target": "T3, hα6(R96H) + hβ4 + hβ3 nAChR (Homo sapiens, UniProt P30926+Q15825, R96H)", "T3 construct": "Full length capped mRNA (i.e., cRNA) was transcribed from linearized plasmids; expressed in transfected cells; host or cells: Xenopus laevis oocytes injected with cRNA", "T3 sequence (Q15825 26-494 R96H)": "as the sequence (Q15825 26-494 S156R) above, with R71H, R131S counted along it", "T3 sequence (P30926 22-498, stated change not applied)": "as the sequence (P30926 22-498) above", "T3 sequence (Q05901 25-458 partner limits assumed)": "as the sequence (Q05901 25-458 V273S partner limits assumed) above, with S249V counted along it", "test": "Oocyte two-electrode voltage clamp", "type": "cell-based", "method": "as §1, §2, §3"}, "[8]": {"target": "hα6(S233C) + hβ4 + hβ3 nAChR (Homo sapiens, UniProt P30926+Q15825, S233C)", "sequence (Q15825 26-494 S233C)": "as the sequence (Q15825 26-494 S156R) above, with R131S, S208C counted along it", "sequence (P30926 22-498)": "as the sequence (P30926 22-498) above", "sequence (Q05901 25-458 partner limits assumed)": "as the sequence (Q05901 25-458 V273S partner limits assumed) above, with S249V counted along it", "test": "Oocyte two-electrode voltage clamp", "type": "cell-based", "method": "as §1, §2, §3"}, "hα6 + hβ4 + hβ3 nAChR [9]": {"target": "T1, hα6 + hβ4 + hβ3 nAChR", "test": "Oocyte two-electrode voltage clamp", "type": "cell-based", "method": "as §1, §2, §3"}, "[10]": {"conditions": "100 μM nicotine, oocytes clamped at −70 mV"}}, "note": "Where two headings read alike, the source gives them in different places."}
{"smiles": "CN1CCC[C@H]1c1cccnc1", "note": "[nicotine, L-nicotine]", "values": [{"measurement": "current response (direction)", "setting": "[1]", "result": "outward reversible currents"}, {"measurement": "current response (direction)", "setting": "hα6hβ4hβ3^V9’S-nAChR", "result": "robust inward current"}, {"measurement": "current response", "setting": "[2]", "result": "not obtained"}, {"measurement": "current response (direction)", "setting": "[3]", "result": "outward reversible currents"}, {"measurement": "current response (direction)", "setting": "[4]", "result": "outward reversible currents"}, {"measurement": "EC50", "setting": "hα6 + hβ4 + hβ3 nAChR [5]", "result": "10 ± 3", "unit": "µM"}, {"measurement": "Imax conc. (concentration where maximal peak current achieved)", "setting": "hα6 + hβ4 nAChR", "result": 100, "unit": "µM"}, {"measurement": "peak current (Imax, mean ± SE)", "setting": "hα6 + hβ4 nAChR; [10]", "result": "35 ± 2", "unit": "nA"}, {"measurement": "EC50", "setting": "hα6(D199Y) + hβ4 nAChR", "result": 4.4, "unit": "µM"}, {"measurement": "Imax conc. (concentration where maximal peak current achieved)", "setting": "hα6(D199Y) + hβ4 nAChR", "result": 100, "unit": "µM"}, {"measurement": "nH ± SE (Hill coefficient)", "setting": "hα6(D199Y) + hβ4 nAChR", "result": "1.1±0.26"}, {"measurement": "peak current (Imax, mean ± SE)", "setting": "hα6(D199Y) + hβ4 nAChR; [10]", "result": "90 ± 11", "unit": "nA"}, {"measurement": "EC50", "setting": "[6]", "result": 11, "unit": "µM"}, {"measurement": "Imax conc. (concentration where maximal peak current achieved)", "setting": "[6]", "result": 100, "unit": "µM"}, {"measurement": "nH ± SE (Hill coefficient)", "setting": "[6]", "result": "1.5±0.42"}, {"measurement": "Mean (±SE) peak current response", "setting": "[6]; [10]", "result": "276 ± 47", "unit": "nA"}, {"measurement": "Imax conc. (concentration where maximal peak current achieved)", "setting": "hα6(R96H) + hβ4 nAChR", "result": 100, "unit": "µM"}, {"measurement": "peak current (Imax, mean ± SE)", "setting": "hα6(R96H) + hβ4 nAChR; [10]", "result": "73 ± 10", "unit": "nA"}, {"measurement": "EC50", "setting": "hα6(S233C) + hβ4 nAChR", "result": 6.2, "unit": "µM"}, {"measurement": "Imax conc. (concentration where maximal peak current achieved)", "setting": "hα6(S233C) + hβ4 nAChR", "result": 100, "unit": "µM"}, {"measurement": "nH ± SE (Hill coefficient)", "setting": "hα6(S233C) + hβ4 nAChR", "result": "1.4±0.13"}, {"measurement": "peak current (Imax, mean ± SE)", "setting": "hα6(S233C) + hβ4 nAChR; [10]", "result": "73 ± 20", "unit": "nA"}, {"measurement": "EC50", "setting": "[7]", "result": 8.2, "unit": "µM"}, {"measurement": "Imax conc. (concentration where maximal peak current achieved)", "setting": "[7]", "result": 100, "unit": "µM"}, {"measurement": "nH ± SE (Hill coefficient)", "setting": "[7]", "result": "1.2±0.13"}, {"measurement": "Mean (±SE) peak current response", "setting": "[7]; [10]", "result": "513 ± 42", "unit": "nA"}, {"measurement": "EC50", "setting": "[8]", "result": 6.9, "unit": "µM"}, {"measurement": "Imax conc. (concentration where maximal peak current achieved)", "setting": "[8]", "result": 100, "unit": "µM"}, {"measurement": "nH ± SE (Hill coefficient)", "setting": "[8]", "result": "1.4±0.12"}, {"measurement": "Mean (±SE) peak current response", "setting": "[8]; [10]", "result": "536 ± 66", "unit": "nA"}, {"measurement": "EC50", "setting": "hα6 + hβ4 + hβ3 nAChR [9]", "result": 12, "unit": "µM"}, {"measurement": "Imax conc. (concentration where maximal peak current achieved)", "setting": "hα6 + hβ4 + hβ3 nAChR [9]", "result": 100, "unit": "µM"}, {"measurement": "nH ± SE (Hill coefficient)", "setting": "hα6 + hβ4 + hβ3 nAChR [9]", "result": "1.5±0.45"}, {"measurement": "increase of peak current response relative to hα6hβ4-nAChRs", "setting": "hα6 + hβ4 + hβ3 nAChR [9]; 100 μM nicotine", "result": "~ 12 fold"}, {"measurement": "Mean (±SE) peak current response", "setting": "hα6 + hβ4 + hβ3 nAChR [9]; [10]", "result": "407 ± 34", "unit": "nA"}]}
